Measured values as given in ChEMBL document CHEMBL4433234, “3H-Imidazo[4,5-b]pyridine-6-carboxylic acid derivatives as rexinoids with reduced teratogenicity” (Bioorg Med Chem Lett, 2019).
In brackets after ≈: the same amount, converted by molar mass.

Key:
[1] = Aqueous solubility in pH 7.4 PBS buffer at 1 mM after 6 hrs by HPLC analysis; assay type: physicochemical
[2] = Toxicity in fertilized zebra fish embryo assessed as teratogenic effect by measuring malformation of spine curvature and head enlargement at 100 nM after 120 hrs post fertilization by microscopic method relative to control; design: species or system Danio rerio; details: zebrafish, 0.1 µM
[3] = molecular target: T1, Retinoic acid receptor RXR-alpha (Homo sapiens, UniProt P19793); experiment: Agonist activity at human RXRalpha expressed in African green monkey COS1 cells harboring CRBP2-tk-luc reporter incubated for 18 hrs by steady-glo luciferase reporter gene assay; assay type: cell-based
T1 sequence (P19793 whole entry): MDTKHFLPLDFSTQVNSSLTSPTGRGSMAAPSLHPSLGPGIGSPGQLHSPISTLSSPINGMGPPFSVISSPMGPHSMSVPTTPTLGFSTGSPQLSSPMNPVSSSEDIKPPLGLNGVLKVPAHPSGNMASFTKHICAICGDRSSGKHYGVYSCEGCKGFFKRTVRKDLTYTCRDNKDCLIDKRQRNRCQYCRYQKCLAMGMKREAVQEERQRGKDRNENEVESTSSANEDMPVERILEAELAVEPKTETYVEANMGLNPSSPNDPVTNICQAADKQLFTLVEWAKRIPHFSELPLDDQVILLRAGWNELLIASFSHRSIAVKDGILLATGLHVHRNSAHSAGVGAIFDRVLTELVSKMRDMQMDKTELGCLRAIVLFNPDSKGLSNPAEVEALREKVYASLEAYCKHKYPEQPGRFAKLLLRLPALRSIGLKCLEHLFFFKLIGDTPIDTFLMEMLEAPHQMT

[4] = Toxicity in fertilized zebra fish embryo assessed as induction of malformation of spine curvature at 1000 nM after 120 hrs post fertilization by microscopic method relative to control; design: species or system Danio rerio; details: zebrafish, 1 µM
[5] = Toxicity in fertilized zebra fish embryos assessed as hatching rate at 300 nM incubated for 120 hrs post fertilization by microscopic method relative to untreated control (reference value: 100%); design: species or system Danio rerio; details: zebrafish, 0.3 µM
[6] = Toxicity in fertilized zebra fish embryos assessed as survival rate at 300 nM incubated for 120 hrs post fertilization by microscopic method relative to untreated control (reference value: 100%); design: species or system Danio rerio; details: zebrafish
[7] = Toxicity in fertilized zebra fish embryos assessed as survival rate at 1000 nM incubated for 120 hrs post fertilization by microscopic method relative to untreated control (reference value: 100%); design: species or system Danio rerio; details: zebrafish
[8] = Toxicity in fertilized zebra fish embryos assessed as hatching rate at 1000 nM incubated for 120 hrs post fertilization by microscopic method relative to untreated control (reference value: 100%); design: species or system Danio rerio; details: zebrafish, 1 µM
[9] = Toxicity in fertilized zebra fish embryos assessed as survival rate at 100 nM incubated for 120 hrs post fertilization by microscopic method relative to untreated control (reference value: 100%); design: species or system Danio rerio; details: zebrafish
[10] = Toxicity in fertilized zebra fish embryos assessed as hatching rate at 100 nM incubated for 120 hrs post fertilization by microscopic method relative to untreated control (reference value: 100%); design: species or system Danio rerio; details: zebrafish, 0.1 µM
[11] = Toxicity in fertilized zebra fish embryo assessed as teratogenic effect by measuring malformation of spine curvature and head enlargement at 1000 nM after 120 hrs post fertilization by microscopic method relative to control; design: species or system Danio rerio; details: zebrafish, 1 µM
[12] = Toxicity in fertilized zebra fish embryo assessed as teratogenic effect by measuring malformation of spine curvature and head enlargement at 300 nM after 120 hrs post fertilization by microscopic method relative to control; design: species or system Danio rerio; details: zebrafish, 0.3 µM
[13] = Toxicity in fertilized zebra fish embryos assessed as hatching rate at 287 nM incubated for 120 hrs post fertilization by microscopic method relative to untreated control (reference value: 100%); design: species or system Danio rerio; details: zebrafish, 0.287 µM
[14] = Toxicity in fertilized zebra fish embryos assessed as survival rate at 287 nM incubated for 120 hrs post fertilization by microscopic method relative to untreated control (reference value: 100%); design: species or system Danio rerio; details: zebrafish

| Compound | solubility at 6 h, 1000 µM [1] [µM] | Activity [2] [%] | EC50 [3] [nM] | Activity [4] | Activity [5] [%] | survival at 120 h, 0.3 µM [6] [%] | survival at 120 h, 1 µM [7] [%] | Activity [8] [%] | survival at 120 h, 0.1 µM [9] [%] | Activity [10] [%] | Activity [11] [%] | Activity [12] [%] | Activity [13] [%] | survival at 120 h, 0.287 µM [14] [%] |
| --- | --- | --- | --- | --- | --- | --- | --- | --- | --- | --- | --- | --- | --- | --- |
| Cc1cc2c(cc1-n1nnc3cc(C(=O)O)cnc31)C(C)(C)CCC2(C)C | 670 (≈ 244 µg/mL) | 0 | 275 | Toxic | 100 | 100 | 100 | 100 | 100 | 100 | 25 | 0 |  |  |
| Cc1cc2c(cc1-n1c(C(F)(F)F)nc3cc(C(=O)O)ccc31)C(C)(C)CCC2(C)C | 12.8 (≈ 5.51 µg/mL) | 0 |  |  | 92 | 100 | 100 | 100 | 100 | 83 | 17 | 0 |  |  |
| Cc1cc2c(cc1-n1c(C(F)(F)F)nc3cc(C(=O)O)cnc31)C(C)(C)CCC2(C)C | 222 (≈ 95.8 µg/mL) | 0 | 670 | Non-Toxic | 100 | 100 | 100 | 83 | 100 | 92 | 10 | 0 |  |  |
| Cc1cc2c(cc1-n1nnc3cc(C(=O)O)ccc31)C(C)(C)CCC2(C)C | 305 (≈ 111 µg/mL) |  |  |  |  | 100 | 100 |  | 100 |  |  |  |  |  |
| C=C(c1ccc(C(=O)O)cc1)c1cc2c(cc1C)C(C)(C)CCC2(C)C [BEXAROTENE] | 0.25 (≈ 0.0871 µg/mL) | 100 |  |  |  |  |  |  | 100 | 67 to 100 |  |  | 99 | 99 |
